Two compounds from patent US8282688B2, “Laccase mediators and methods of use” (Danisco US Inc., priority 2006, dated 2012) can be followed below.

Test [1] has as its system Cerrena unicolor Laccase (recombinant laccase D). Description: Laccase bleaching of stonewashed denim legs, effect of temperature, Unimac, recombinant laccase D (Example 9). It counts as biochemical. Particulars: laccase 0.05 g/l/0.4 U/ml, pH 6, 30 minutes. As to the method:
(§1) Denim, 12 legs weighing approximately 3 kg, was desized in a Unimac UF 50 washing machine under the following conditions: • Desizing for 15 minutes at 10:1 liquor ratio 50° C. with 0.5 g/l (15 g) of Optisize 160 amylase (Genencor) and 0.5 g/l (15 g) of a non-ionic surfactant (e.g. Rucogen BFA, (Rudolf Chemie) or Ultravon GPN, (Huntsman)) • 2 cold rinses for 5 minutes at 30:1 liquor ratio.
(§2) Following desizing the denim was stonewashed in a Unimac UF 50 washing machine under the following conditions: • Cold rinse for 5 minutes at 10:1 liquor ratio • Stonewashing for 60 minutes at 10:1 liquor ratio 55° C. with 1 kg of pumice stone, citrate buffer (30 g tri-sodium citrate dihydrate and 30 g citric acid monohydrate) and 35 g IndiAge 2XL cellulase (Genencor). • 2 cold rinses for 5 minutes at 30:1 liquor ratio.
(§3) Denim legs were evaluated with a Minolta Chromameter CR 310 in the CIE Lab color space with a D 65 light source. Measurements were done only after laccase treatment. For each denim leg 8 measurements are taken and the result of the 12 legs (96 measurements) was averaged.
Laccase bleaching of stonewashed denim: Denim, 12 legs approximately 3 kg, was desized and stonewashed as described in example 8. After stonewashing a laccase treatment was done in a Unimac UF 50 washing machine according to the following process: • 30 minutes at 10:1 liquor ratio, • pH 6 (21 g monosodium phosphate and 5 g adipic acid, recombinant laccase D) or pH 4.8 (8.6 g monosodium phosphate and 16.8 g of adipic acid, Novoprime Base 268 laccase) • laccase (recombinant laccase D or Novoprime Base 268) • mediator (syringamide (SA) and syringonitrile (SN)) • After laccase treatment the denim use rinsed twice in cold water for 5 minutes at 30:1 liquor ratio.

For test [2], the system named is recombinant laccase D. Description: Denim swatch bleaching, laccase and mediator concentration, Launder-O-meter (Example 10). It counts as biochemical, Cerrena unicolor. Set-up: key: TCD = √(ΔL²+Δa²+Δb²) in CIE Lab, before vs after treatment. Particulars: 60° C., pH 6. How it is done:
Laccase enzyme, derived from Cerrena unicolor (Example 7, 8570 U/ml, 4 mg protein/ml) was used in the experiments.
The enzyme incubations were done in an ATLAS LP 2 Launder-O-meter at different conditions in relation to pH, temperature, enzyme concentration and mediator concentration.
Reactions were carried out in 500 ml stainless steel reaction vessels containing 100 ml of liquid. To each vessel five (7×7 cm) stonewashed denim swatches (ACG denim style 80270) and 6 steel balls of 6 mm diameter were added. The reactions vessels were closed and entered into the launder-O-meter that was pre-heated to the desired temperature. The incubation was carried out for 30 minutes after which the swatches were washed with ‘running’ tap water, spin dried in an AEG IPX4 centrifuge and dried with an Elna Press Electronic iron at program cotton and evaluated.
The color of the five denim swatches is measured with a Minolta Chromameter CR 310 in the CIE Lab color space with a D 65 light source. Measurements were done before and after laccase treatment and the results of the five swatches were averaged. The total color difference (TCD) is calculated. The total color difference can be calculated with the formula: TCD=√(ΔL)^2+(Δa)^2+(Δb)^2.
The effect of laccase and mediator concentration was evaluated running the experiments in the tables below at pH 6 (50 mM monosodium phosphate buffer pH adjusted with sodium hydroxide 4N solution) and a temperature of 60° C.
The experiments were done with syringamide (SA)- and syringonitrile (SN) mediator.
100 ml buffer was added to a beaker with five swatches, 7×7 cm. The total weight 12 g, (denim:liquor ratio=1:8).
The amounts of syringamide or syringonitrile mediator as indicated in the tables below were added to each beaker as a dilution of a 275 mM SA—or—SN stock solution in 98% methanol. The laccase was added to each beaker as indicated in the tables below, as dilution of a 400 units/ml laccase stock solution. The beakers were closed and processed at 60° C. as described in the example 8. The swatches were evaluated as described in example 8.

Test [3] has as its system Cerrena unicolor Laccase (recombinant laccase D). Description: Laccase bleaching of stonewashed denim legs, laccase dose response, Unimac (Example 11). It counts as biochemical. Particulars: pH 6, 60° C., 30 minutes. As to the method:
as §1, §2, §3
Laccase bleaching of stonewashed denim—Denim, 12 legs weighing approximately 3 kg, was desized and stonewashed as described in Example 8. After stonewashing, a laccase treatment was done according to the following process: 30 minutes at 10:1 liquor ratio and pH 6 (21 g monosodium phosphate and 5 g adipic acid) and 60° C. with laccase and mediator. After laccase treatment the denim use rinsed twice in cold water for 5 minutes at 30:1 liquor ratio.

Where [4] appears, read: laccase 10 μl/l, mediator 0.10 mM.
[5] abbreviates: laccase 10 μl/l, mediator 0.55 mM.
Setting [6] is: laccase 10 μl/l, mediator 1.00 mM.
Where [7] appears, read: laccase 33 μl/l, mediator 0.33 mM.
The mark [8] stands for this setting: laccase 33 μl/l, mediator 0.78 mM.
The mark [9] stands for this setting: laccase 55 μl/l, mediator 0.10 mM.
Setting [10] is: laccase 55 μl/l, mediator 0.55 mM.
The mark [11] stands for this setting: laccase 55 μl/l, mediator 1.00 mM.
The mark [12] stands for this setting: laccase 78 μl/l, mediator 0.33 mM.
Where [13] appears, read: laccase 78 μl/l, mediator 0.78 mM.
The mark [14] stands for this setting: laccase 100 μl/l, mediator 0.10 mM.
Setting [15] is: laccase 100 μl/l, mediator 0.55 mM.
The mark [16] stands for this setting: laccase 100 μl/l, mediator 1.00 mM.

Several values for one entry are separate records, joined by “and”; a condition that tells them apart may be missing. Identical values can stand only once.

For the compound `COc1cc(C(N)=O)cc(OC)c1O` [SA, 4-carboxamido-2,6-dimethoxyphenol], the “Bleaching level (CIE L)” value in test [1] (mediator 0.33 mM, 40 ° C.) is 35.6; in test [1] (mediator 0.33 mM, 60 ° C.), 35.6; in test [3] (Syringamide 0.33 mM, Cerrena unicolor laccase 0.010 g/l), 34.6; in test [3] (Syringamide 0.33 mM, Cerrena unicolor laccase 0.05 g/l), 36.2; in test [3] (Syringamide 0.33 mM, Cerrena unicolor laccase 0.25 g/l), 36.2. The “TCD (total color difference)” value in test [2] (setting [4]) is 2.5; in test [2] (setting [5]) it was 3.6; in test [2] (setting [6]), 3.2; in test [2] (setting [7]), 4.6; in test [2] (setting [8]) it was 5.5; in test [2] (setting [9]), 3.1. In addition, the “TCD (total color difference)” value in test [2] (setting [10]) is 5.3 and 5.8; in test [2] (setting [11]) it was 6.2; in test [2] (setting [12]), 4.4; in test [2] (setting [13]), 5.9; in test [2] (setting [14]), 3.2 and 2.9; in test [2] (setting [15]) it was 5.3. Besides, the “TCD (total color difference)” value in test [2] (setting [16]) is 5.6 and 6.0.
As to `COc1cc(C#N)cc(OC)c1O` [SN, 4-cyano-2,6-dimethoxyphenol], the “Bleaching level (CIE L)” value stood at 35.7 in test [1] (mediator 0.47 mM, 40 ° C.); 35.9 in test [1] (mediator 0.47 mM, 60 ° C.); 37.7 in test [3] (Syringonitrile 0.39 mM, Cerrena unicolor laccase 0.25 g/l); 39.5 in test [3] (Syringonitrile 0.39 mM, Cerrena unicolor laccase 0.4 g/l); 38.8 in test [3] (Syringonitrile 0.39 mM, Cerrena unicolor laccase 0.53 g/l). Further, the “TCD (total color difference)” value in test [2] (setting [4]) is listed as 2.7; in test [2] (setting [5]) it was 3.4; in test [2] (setting [6]), 3.8; in test [2] (setting [7]) it was 4.4; in test [2] (setting [8]), 5.5; in test [2] (setting [9]), 3.5. Further, the “TCD (total color difference)” value in test [2] (setting [10]) was 6.0 and 6.3; in test [2] (setting [11]), 7.0; in test [2] (setting [12]), 5.6; in test [2] (setting [13]) it was 7.1; in test [2] (setting [14]), 4.0 and 4.1; in test [2] (setting [15]), 7.1. Further, in test [2] (setting [16]), the “TCD (total color difference)” value is 7.6 and 8.1.
